Test systems include 786-0; K562; HCT-116; NCI-H23; CAKI-1; ACHN; SK-MEL-5; SK-MEL-28; RXF 393; OVCAR-3; SNB-19; IGROV-1; SW-620; OVCAR-8; CCRF-CEM; SNB-75.
Common to all, as to assay: NCI tumour cell line growth inhibition, 48 h

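Exposure lasted 48 hours, with cells grown in 96-well plates and compounds tested at five concentrations. GI50 = concentration required for 50% inhibition of growth.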 Activity calls are given as the source filed them. No stated cut-off is given here; in the data, active = GI50 up to about 1.1 µM and inactive = higher. Where only a bound is given, the exact number is not on record here.

Data on 13 compounds can be found in ChEMBL document CHEMBL1201862, “PubChem BioAssay data set” (2004).

Regarding `C/C(=N/N(C=O)C[n+]1ccccc1)C(CN(CC(C)C)CC(C)C)C(=O)Nc1ccc(C)cc1C` (configuration not stated), the GI50 in the test on 786-0 was > 100 µM (inactive); in the test on K562, > 100 µM (inactive); with HCT-116, > 100 µM (inactive); in the test with NCI-H23 it was > 100 µM (inactive); with CAKI-1, 55.1 µM (inactive); in the test with ACHN it was 94.2 µM (inactive). For the same compound, the GI50 in the test with SK-MEL-5 was 57.1 µM (inactive); in the test on SK-MEL-28 it was > 100 µM (inactive); in the test on RXF 393, 42.9 µM (inactive); with OVCAR-3 it was > 100 µM (inactive); with SNB-19, 67.9 µM (inactive); in the test with IGROV-1 it was > 100 µM (inactive). The GI50 with SW-620, in the test on OVCAR-8 and in the test on CCRF-CEM was > 100 µM (inactive) throughout.

On to `O=C1c2cccc([N+](=O)[O-])c2C(=O)c2nccnc21`, for which the GI50 is 1.78 µM (inactive) in the test with 786-0; 1.91 µM (inactive) in the test with K562; 1.63 µM (inactive) with HCT-116; 1.25 µM (inactive) in the test with NCI-H23; 4.86 µM (inactive) in the test on CAKI-1; 3.19 µM (inactive) in the test with ACHN. In addition, the GI50 with SK-MEL-5 was 0.25 µM (active); with SNB-75 it was 1.07 µM (active); in the test with SK-MEL-28, 1.63 µM (inactive); in the test on RXF 393, 1.95 µM (inactive); in the test with OVCAR-3, 1.87 µM (inactive); in the test with SNB-19, 1.69 µM (inactive). Moreover, the GI50 in the test with SW-620 was 1.73 µM (inactive); in the test with OVCAR-8 it was 2.25 µM (inactive); with CCRF-CEM it was 2.54 µM (inactive).

`CCOC(=O)C1=C(Nc2ccc(Cl)c(Cl)c2)OC/C1=N\NS(=O)(=O)c1ccc(C)cc1`: the GI50 is > 100 µM (inactive) with 786-0; 21.3 µM (inactive) with K562; 22.8 µM (inactive) in the test with HCT-116; 34.7 µM (inactive) with NCI-H23; 44.2 µM (inactive) in the test on CAKI-1; 42.9 µM (inactive) in the test on SK-MEL-5. Further, the GI50 in the test with SNB-75 is 35.8 µM (inactive); in the test with SK-MEL-28 it was 64.7 µM (inactive); with RXF 393 it was 67.9 µM (inactive); in the test with OVCAR-3 it was 49.5 µM (inactive); in the test on SNB-19 it was 59 µM (inactive); in the test with IGROV-1 it was 68.9 µM (inactive). The GI50 was > 100 µM (inactive) in the test with SW-620, 75.2 µM (inactive) with OVCAR-8 and 27.5 µM (inactive) in the test with CCRF-CEM.

As to `Cc1nc2ccccc2c(=O)n1/N=C(\N=N\c1cc(Cl)ccc1Cl)c1ccc(N(C)C)cc1`, the GI50 in the test with 786-0 was 73.5 µM (inactive); in the test on K562, 57.1 µM (inactive); in the test with HCT-116, 32.3 µM (inactive); with NCI-H23, 34.8 µM (inactive); in the test on CAKI-1 it was 34 µM (inactive); in the test with ACHN, 71.8 µM (inactive). Also, the GI50 in the test on SK-MEL-5 was 27.2 µM (inactive); with SK-MEL-28, > 100 µM (inactive); in the test with RXF 393, 27.2 µM (inactive); in the test on SNB-19 it was 33.3 µM (inactive); in the test on IGROV-1, 49.9 µM (inactive); in the test on SW-620, > 100 µM (inactive). Further, the GI50 in the test on OVCAR-8 was 40.9 µM (inactive); in the test with CCRF-CEM, 52.7 µM (inactive).

Consider `O=C1C(c2ccccc2)=C(c2ccccc2)C(c2ccc(Sc3ccc(C4=C(c5ccccc5)C(=O)C(c5ccccc5)=C4c4ccccc4)cc3)cc2)=C1c1ccccc1`, for which the GI50 in the test on 786-0, with K562, in the test with HCT-116, in the test with NCI-H23, with CAKI-1 and in the test on SK-MEL-5 was > 100 µM (inactive) each time. The GI50 in the test with SNB-75 was 31.3 µM (inactive); in the test with RXF 393, 64.9 µM (inactive); with OVCAR-3, > 100 µM (inactive); in the test on SNB-19, > 100 µM (inactive); in the test with IGROV-1, > 100 µM (inactive); in the test on SW-620, > 100 µM (inactive). Also, the GI50 in the test with OVCAR-8 and in the test with CCRF-CEM was > 100 µM (inactive) throughout.

As to `C=CCN1/C(=C2\SC(=S)N(c3ccc(C)cc3)C2=O)Sc2c1ncn(C)c2=O`, the GI50 is 71.1 µM (inactive) in the test with 786-0; > 100 µM (inactive) in the test on K562; > 100 µM (inactive) with HCT-116; > 100 µM (inactive) with NCI-H23; > 100 µM (inactive) in the test with CAKI-1; > 100 µM (inactive) with ACHN. Moreover, the GI50 with SK-MEL-5 was 38.4 µM (inactive); in the test with SNB-75, 40.7 µM (inactive); with SNB-19, > 100 µM (inactive); in the test on IGROV-1, > 100 µM (inactive); in the test on SW-620 it was > 100 µM (inactive); with OVCAR-8, 95.1 µM (inactive). In addition, the GI50 in the test with CCRF-CEM is > 100 µM (inactive).

Turning to `NC(=O)c1c([N+](=O)[O-])cc(C(F)(F)F)cc1[N+](=O)[O-]`, the GI50 with 786-0 is > 100 µM (inactive); in the test with K562, 86.1 µM (inactive); with HCT-116 it was 39 µM (inactive); with NCI-H23 it was 29.8 µM (inactive); with CAKI-1, > 100 µM (inactive); in the test on ACHN, > 100 µM (inactive). The GI50 was 50 µM (inactive) in the test on SK-MEL-5; > 100 µM (inactive) with SNB-75; > 100 µM (inactive) with SK-MEL-28; > 100 µM (inactive) with RXF 393; 24.9 µM (inactive) with OVCAR-3; > 100 µM (inactive) in the test with SNB-19. Also, the GI50 is > 100 µM (inactive) in the test with IGROV-1, 44.5 µM (inactive) in the test with SW-620 and > 100 µM (inactive) in the test with OVCAR-8.

In the case of `O=C(O)c1ccc(C2C(=O)N[C@@H]3CCC[C@H]23)cc1` (some centres not stated), the GI50 in the test on 786-0, in the test on K562, in the test on HCT-116, in the test on NCI-H23, in the test with CAKI-1 and in the test on SK-MEL-5 was > 100 µM (inactive) throughout. Further, the GI50 in the test with SNB-75, with SK-MEL-28, in the test on RXF 393, with OVCAR-3, in the test with SNB-19 and with IGROV-1 was > 100 µM (inactive) in each case. Also, the GI50 with SW-620, in the test on OVCAR-8 and with CCRF-CEM was > 100 µM (inactive) throughout.

Take `CCOC(=O)Cc1nc(/C(C#N)=C/c2ccco2)[nH]c(=O)c1C#N`: the GI50 in the test on 786-0, with K562, with HCT-116, in the test with NCI-H23, in the test with CAKI-1 and in the test on ACHN was > 100 µM (inactive) throughout. Also, the GI50 with SK-MEL-5, in the test with SNB-75, in the test with RXF 393, with OVCAR-3, in the test with SNB-19 and with IGROV-1 was > 100 µM (inactive) each time. Besides, the GI50 with SW-620, in the test on OVCAR-8 and with CCRF-CEM was > 100 µM (inactive) in each case.

For `CCCN(CCC)c1c([N+](=O)[O-])cc(S(N)(=O)=O)cc1[N+](=O)[O-]` [ORYZALIN], the GI50 in the test on 786-0 is 16.7 µM (inactive); in the test with K562, 13.5 µM (inactive); in the test with HCT-116 it was 18 µM (inactive); in the test on NCI-H23, 16.1 µM (inactive); in the test on CAKI-1, 13.6 µM (inactive); in the test on ACHN it was 17.9 µM (inactive). The GI50 was 19.3 µM (inactive) in the test on SK-MEL-5; 18.3 µM (inactive) in the test with SNB-75; 20.7 µM (inactive) with SK-MEL-28; 16.9 µM (inactive) in the test with OVCAR-3; 19.7 µM (inactive) with SNB-19; 7.29 µM (inactive) in the test on IGROV-1. Moreover, the GI50 was 20.7 µM (inactive) in the test with SW-620, 19.1 µM (inactive) in the test on OVCAR-8 and 16.8 µM (inactive) with CCRF-CEM.

Take `Cc1c[nH]c2c1C13CC1CN(C(=O)c1cc4cc(NC(=O)c5cc6ccccc6o5)ccc4[nH]1)C3=CC2=O` (configuration not stated): the GI50 in the test on 786-0, with K562, in the test with HCT-116, in the test on NCI-H23, in the test with CAKI-1 and in the test on ACHN was < 0.001 µM (active) each time. In addition, the GI50 in the test with SK-MEL-5, in the test on SNB-75, in the test on SK-MEL-28, with RXF 393, in the test on SNB-19 and in the test on SW-620 was < 0.001 µM (active) in each case. Also, the GI50 in the test with OVCAR-8 and with CCRF-CEM was < 0.001 µM (active) throughout.

Regarding `COc1ccc(/C(=C/n2ccnc2)C(=O)c2ccc(OC)c(OC)c2)cc1`, the GI50 with 786-0, in the test with K562, in the test with HCT-116, in the test with NCI-H23, with CAKI-1 and with ACHN was > 100 µM (inactive) in each case. In addition, the GI50 in the test with SK-MEL-5, in the test on SNB-75, in the test with SK-MEL-28, with OVCAR-3, in the test on SNB-19 and in the test with SW-620 was > 100 µM (inactive) throughout. Moreover, the GI50 in the test on OVCAR-8 and with CCRF-CEM was > 100 µM (inactive) each time.

Take `C(CCC[Te][Te]CCCCCCOC1CCCCO1)CCOC1CCCCO1` (configuration not stated): the GI50 was 15.5 µM (inactive) with 786-0; 5.86 µM (inactive) with K562; 19.8 µM (inactive) in the test on HCT-116; 12.4 µM (inactive) with NCI-H23; 12.6 µM (inactive) with CAKI-1; 10.6 µM (inactive) with ACHN. The GI50 is 17.3 µM (inactive) in the test on SNB-75; 14.1 µM (inactive) in the test with SK-MEL-28; 14.4 µM (inactive) in the test with SNB-19; 16.5 µM (inactive) in the test with IGROV-1; 18.2 µM (inactive) in the test with SW-620; 16 µM (inactive) in the test with OVCAR-8. Further, in the test with CCRF-CEM, the GI50 was 11 µM (inactive).
